Data taken from patent publication US20250129329A1, “CULTURE MEDIUM FOR HEPATOMA ORGANOID CULTURE, HEPATOMA ORGANOID CULTURE METHOD, AND APPLICATION THEREOF” (PRECEDO PHARMACEUTICALS CO., LTD, priority 2021, published 2025).

Key:
Assay type in all cases: cell-based, human
[1] = test system: hepatoma organoids (sample GL-006); assay: Drug screening on hepatoma organoids, CellTiter-Glo viability and microscopy (Example 5); details: for growth of organoids after drug treatment (photos): after 5 days of drug treatment, microscope photos, FIG. 5A; for inhibitory effect on the growth of hepatoma organoids (drug inhibition rate): two concentrations (1 and 0.1 mM stocks diluted 1000 times), 5 days, CellTiter-Glo, FIG. 5B
Procedure: Primary liver cancer cells were isolated from liver cancer intraoperative sample (GL-006) according to the method described in Section (2), Example 1, and were cultured to obtain organoids by using HC-3 culture medium until the diameters of hepatoma organoids exceeded 50 μm, which were then used for drug screening.
Prepare Three drugs with two concentration gradients were prepared according to the table below (Bortezomib, Aclarubicin, and Doxorubicin; all purchased from MCE) and store for use.
The prepared drugs were taken out and placed at room temperature. The drugs were diluted 1000 times with HC-3 culture medium for later use. The organoids cultured and obtained according to step (1) were taken out from the incubator, the culture mediums were removed from the wells, and the culture mediums containing drugs were slowly added into the wells along the well wall. After the addition of drug, disinfect the surface of the 96-well plate was sterilized and then was transferred to the incubator for further cultivation. After 5 days, the viability of organoids were measured.
CellTiter-Glo luminescent reagent (purchased from Promega) was taken out from a 4° C. refrigerator, and 10 mL of the reagent was added into the loading slot; the 96-well plate for testing was taken out from the incubator, and 20 μL CellTiter-Glo luminescent reagent was added into each well. After standing for 10 minutes followed by mixing well, the test was conducted by using a multi-functional microplate reader (Envision, Perkin Elmer).

[2] = test system: hepatoma organoids isolated from liver cancer tissue; assay: Effects of medium additives on proliferation of hepatoma organoids (Example 1); details: additive in basic medium at the final concentration; organoid diameters after 7 days compared with Basic Medium
Procedure: First, a basic medium containing initial medium was prepared. […] In this embodiment, the formulation of the basic medium is: DMEM/F12 medium (purchased from Corning)+100 μg/mL Primocin (purchased from InvivoGen, 0.2% (v/v), commercial product has a concentration of 50 mg/ml).
Different types of additives (see Table 1) were added to the basic medium to prepare culture mediums for hepatoma organoid with different components.
Tissue samples (intraoperative) of liver cancer solid tumor were obtained from patients by professional medical practitioner of professional medical institutions, and all patients have signed the informed consent. Intraoperative samples having the size of 0.25 cm3 were stored and transported using commercial tissue preservation solution (manufacturer: Miltenyi Biotec).
• 3.1. Tissue samples were transferred from the ultra-clean workbench to a culture dish, and the tissue with blood was removed. The tissue samples were rinsed twice with basic medium, and then were transferred to another culture dish and mechanically cut with a sterile scalpel into tissue blocks of 1×1×1 mm3 in size. • 3.2. The cut intraoperative tissues were aspirated into a 15 mL centrifuge tube, to which 5 mL of basic medium was added, fully mixed, and then centrifuged at 1500 rpm for 4 minutes. • 3.3. The supernatant was discarded, and the resultant was added with 1:3 mixture of basic medium and tissue digestion solution (the amount of tissue digestion solution added was about 10 mL tissue digestion solution for 1 g of tumor tissue). The samples were marked with names and numbers, sealed with sealing film, and then digested in a shaker (Zhichu Instrument ZQLY-180N) at 37° C., 300 rpm. The completion of digestion was determined via observation every 30 minutes, based on the existing of visible particles or not. • 3.4. After the digestion was completed, undigested tissue mass was filtered out through a […] filter mash. The tissue mass on the filter mash was rinsed into the centrifuge tube with basic medium to reduce cell loss. The resultant was centrifuged at 25° C., 1500 rpm for 4 minutes. • 3.5. […] If there were blood cells, 8 mL blood cell lysate (purchased from Sigma) was added in the resultant and fully mixed, lysed at 4° C. for 20 minutes, with inverting and mixing once during the process. The resultant was centrifuged at 25° C., 1500 rpm for 4 minutes. • 3.6. The supernatant was discarded and 2 mL basic medium was added to resuspend the cells for reserve.
• 4.1 Microscopic observation: a small amount of resuspended cells were plated in a culture dish, and the density and morphology of cancer cells were observed under a microscope (CNOPTEC, BDS400); • 4.2 Viable cell counting: 12 μL of the resuspended cell suspension was fully mixed with 12 μL of trypan blue staining solution (Manufacturer: Sangon Biotech (Shanghai) Co., Ltd.), and then 20 μL of the mixture was added into a cell counting plate (Manufacturer: Countstar, specifications: 50 pieces/box).
The primary liver cancer cells obtained in the above steps were resuspended with pre-cooled DMEM/F12 and counted. The cell density was diluted to 5-10×10^6 cells/mL and 400 μL of the diluted cell suspension was added with an equal volume of Matrigel matrix gel (Corning) and mixed gently and well. Then, the mixture was inoculated at 5 μL/well onto a 96-well plate. The inoculated plate was placed into an incubator for 30 minutes until Matrigel is completely coagulated. Then, the culture mediums as shown in Table 1 that have been come to room temperature in advance were added, respectively, and the culture mediums were renewed every three days for expansion and cultivation. After 7 days, the cultured organoids were photographed and the diameters of the organoids were measured and compiled, so as to compare the promoting effects of various factors on the proliferation of hepatoma organoids. As the experimental control, the basic medium without any additives was used.

[3] = test system: hepatoma organoids (samples GL-003, GL-004); assay: Effects of different concentrations of factors in the culture medium on proliferation of hepatoma organoids (Example 2); details: added to HC-3 medium lacking that factor; organoid diameter ratio to Blank Control after 10 days, FIGS. 1A-1K
Procedure: Primary liver cancer cells were obtained from intraoperative tissue samples (Nos. GL-003, GL-004) in accordance with the method described in Section (2), Example 1, and the organoids were cultured using the culture medium formulations as shown in Table 2 below.
When using the culture medium of Formulation 1, to a 96-well plate inoculated with organoids was added the prepared B27 in addition to the medium of Formulation 1, with 200 μL per well, such that the final concentrations of B27 were 1:25, 1:50 and 1:100, respectively; a well of Blank Control (BC) was set using the medium of Formulation 1. The final concentrations of other factors added in this series of culture mediums were the same as those in HC-3 culture medium. The experiments of Formulations 1-11 below were also conducted in the same way and will not be described in details.
(§1) When using the culture medium of Formulation 2, to a 96-well plate inoculated with organoids was added the prepared HGF in addition to the medium of Formulation 2, with 200 μL per well, such that the final concentrations of HGF were 1 ng/ml, 5 ng/mL and 25 ng/mL, respectively; a well of Blank Control (BC) was set using the medium of Formulation 2.
as §1, with “3,” for “2,”, “ITS cell culture additive” for “HGF”, “1:300, 1:100” for “1 ng/ml, 5 ng/mL”, “1:30,” for “25 ng/mL,”, “3.” for “2.”
as §1, with “4,” for “2,”, “Y27632” for “HGF”, “3 μM, 10 μM” for “1 ng/ml, 5 ng/mL”, “30 μM,” for “25 ng/mL,”, “4.” for “2.”
as §1, with “6,” for “2,”, “NRG1” for “HGF”, “ng/ml” for “ng/mL”, “ng/ml,” for “ng/mL,”, “6.” for “2.”
as §1, with “7,” for “2,”, “insulin” for “HGF”, “µL” for “μL”, “μg/mL, 3 μg/mL” for “ng/ml, 5 ng/mL”, “10 μg/mL,” for “25 ng/mL,”, “7.” for “2.”
as §1, with “8,” for “2,”, “EGF” for “HGF”, “2” for “1”, “6 ng/ml” for “5 ng/mL”, “18 ng/ml,” for “25 ng/mL,”, “8.” for “2.”
as §1, with “9,” for “2,”, “GlutaMAX” for “HGF”, “1:300, 1:100” for “1 ng/ml, 5 ng/mL”, “1:30,” for “25 ng/mL,”, “9. […]” for “2.”

Molecule | growth of organoids after drug treatment (photos) [1] | inhibitory effect on the growth of hepatoma organoids (drug inhibition rate) [1] | Level of promoting proliferation [2] | preferable amount in the culture medium for promoting organoid proliferation [3]
CC[C@@]1(O)C[C@H](O[C@H]2C[C@H](N(C)C)[C@H](O[C@H]3C[C@H](O)[C@H](O[C@H]4CCC(=O)[C@H](C)O4)[C@H](C)O3)[C@H](C)O2)c2c(cc3c(c2O)C(=O)c2c(O)cccc2C3=O)[C@H]1C(=O)OC [Aclarubicin] | significantly inhibited | varied significantly |  | 
CC(C)C[C@H](NC(=O)[C@H](Cc1ccccc1)NC(=O)c1cnccn1)B(O)O [Bortezomib] | significantly inhibited | strong inhibitory effects |  | 
Cc1c[nH]c(-c2cnc(NCCNc3ccc(C#N)cn3)nc2-c2ccc(Cl)cc2Cl)n1 [CHIR99021] |  |  | − | 
CN1C(=O)C(c2c(F)cccc2F)N(C)c2nc(Nc3ccc(S(N)(=O)=O)cc3)ncc21 (stereo not shown) [Compound 1, 4-((7-(2,6-Difluorophenyl)-5,8-dimethyl-6-oxo-5,6,7,8-tetrahydropteridin-2-yl)amino)benzsulfamide] |  |  | + | 2.5 to 10 µM
Cc1cccc(-c2nn(C(=S)Nc3ccccc3)cc2-c2ccnc3ccccc23)n1 [Compound A8301] |  |  | − | 
C[C@@H](N)[C@H]1CC[C@H](C(=O)Nc2ccncc2)CC1 [Compound Y27632] |  |  | + | 3 to 30 µM
COc1cccc2c1C(=O)c1c(O)c3c(c(O)c1C2=O)C[C@@](O)(C(=O)CO)C[C@@H]3O[C@H]1C[C@H](N)[C@H](O)[C@H](C)O1 [Doxorubicin] |  | no inhibitory effect |  | 
Oc1ccc(-c2nc(-c3ccncc3)c(-c3ccc(F)cc3)[nH]2)cc1 [SB202190] |  |  | − | 
C[C@@H]1C[C@H]2[C@@H]3CCC4=CC(=O)C=C[C@]4(C)[C@@]3(F)[C@@H](O)C[C@]2(C)[C@@]1(O)C(=O)CO [dexamethasone] |  |  |  | 0.1 to 1 µM
basic fibroblast growth factor, bFGF: growth factor medium additive, supplier R&D |  |  | − | 
epidermal growth factor, EGF: growth factor medium additive, supplier R&D (NSDSECPLSHDGYCLHDGVCMYIEALDKYACNCVVGYIGERCQYRDLKWWELR; Epidermal growth factor; UniProt P01133 971-1023, looked up) |  |  | + | 2 to 18 ng/mL
hepatocyte growth factor, HGF: growth factor medium additive, supplier R&D |  |  | + | 
insulin: medium additive, supplier Peprotech |  |  | + | 1000 to 10000 ng/mL
